Test results published in patent US20190375708A1 (VenatoRx Pharmaceuticals, Inc., priority 2018, published 2019).

Tests used:
[1] = In vitro cytotoxicity assay (MTT cell viability) in HepG2 cells; assay type: cell-based, human; conditions: human
How it was run: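 Read-out: MTT formazan absorbance at 492 nm, expressed as % of vehicle signal; CC50 by 4-parameter non-linear regression. Parental HepG2, 20,000 cells/well, treated 7 days with compound from 30 μM down to 1.0 nM.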

[2] = system: HBV replication in HepAD38 cells; test: Anti-HBV replication assay in HepAD38 cells (QPCR of extracellular HBV DNA); assay type: cell-based, HBV (genotype D, serotype ayw); conditions: Hepatitis B virus, 168 h, 7 days incubation, extracellular HBV DNA by QPCR, read-out: Anti-HBV EC50
How it was run: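 EC50 values reflect 50% reduction of extracellular HBV DNA, measured by QPCR after 7-day treatment of tetracycline-deprived HepAD38 cells with compound […].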

SMILES | CC50 at 7 days [1] [nM] | EC50 [2] [nM]
Cc1cc(NC(=O)c2c(C)c(C(=O)C(=O)NC34CC5CC(CC(C5)C3)C4)n(C)c2C)ccc1F [Example 14, 5-(2-(((3s,5s,7s)-adamantan-1-yl)amino)-2-oxoacetyl)-N-(4-fluoro-3-methylphenyl)-1,2,4-trimethyl-1H-pyrrole-3-carboxamide] | 5000 to 30000 | < 50
Cc1cc(NC(=O)c2c(C)c(C(=O)C(=O)N[C@@H]3CCC[C@H](O)C3)n(C)c2C)ccc1F [Example 330, N-(4-fluoro-3-methylphenyl)-5-(2-(((1R,3S)-3-hydroxycyclohexyl)amino)-2-oxoacetyl)-1,2,4-trimethyl-1H-pyrrole-3-carboxamide] | > 30000 | < 50
COc1c(C(=O)Nc2ccc(F)c(F)c2)c(C)n(C)c1C(=O)C(=O)NC1(C(F)(F)F)CC1 [Example 377, N-(3,4-difluorophenyl)-4-methoxy-1,2-dimethyl-5-(2-oxo-2-((1-(trifluoromethyl)cyclopropyl)amino)acetyl)-1H-pyrrole-3-carboxamide] | > 30000 | < 50
Cc1c(C(=O)Nc2cccc(C(F)F)c2)c(C)n(C)c1C(=O)C(=O)N[C@H]1CC[C@@H](O)CC1 [Example 690, N-(3-(difluoromethyl)phenyl)-5-(2-(((1s,4s)-4-hydroxycylcohexyl)amino)-2-oxoacetyl)-1,2,4-trimethyl-1H-pyrrole-3-carboxamide] | > 30000 | < 50
Cc1c(C(=O)Nc2ccc(F)nc2)c(C)n(C)c1C(=O)C(=O)N[C@H]1CC[C@](O)(C(F)(F)F)CC1 [Example 239] | > 30000 | 500 to 1000
O=C(N[C@H]1CCC[C@H]1O)C(=O)c1c(Cl)c(C(=O)Nc2ccc(F)c(F)c2)c2n1CCCC2 [Example 519, 2-chloro-N-(3,4-difluorophenyl)-3-(2-(((1S,2R)-2-hydroxycyclopentyl)amino)-2-oxoacetyl)-5,6,7,8-tetrahydroindoliznie-1-carboxamide] | 5000 to 30000 | 50 to 499
Cc1cc(NC(=O)c2c(C)c(C(=O)C(=O)N[C@H]3CC[C@@](O)(C(F)(F)F)CC3)n(C)c2C)cnc1F [Example 205, N-(6-fluoro-5-methylpyridin-3-yl)-5-(2-(((1r,4r)-4-hydroxy-4-(trifluoromethyl)cyclohexyl)amino)-2-oxoacetyl)-1,2,4-trimethyl-1H-pyrrole-3-carboxamide] | > 30000 | < 50
Cc1cc(NC(=O)c2c(C)c(C(=O)C(=O)N[C@@H](C)CCO)n(C)c2C)ccc1F [Example 142, (S)-N-(4-fluoro-3-methylphenyl)-5-(2-((4-hydroxybutan-2-yl)amino)-2-oxoacetyl)-1,2,4-trimethyl-1H-pyrrole-3-carboxamide] | > 30000 | < 50
Cc1cc(NC(=O)c2c(C)c(C(=O)C(=O)N3[C@@H]4CC[C@H]3C[C@H](O)C4)n(C)c2C)ccc1F [Example 48, N-(4-fluoro-3-methylphenyl)-5-(2-((1R,3s,5S)-3-hydroxy-8-azabicyclo[3.2.1]octan-8-yl)-2-oxoacetyl)-1,2,4-trimethyl-1H-pyrrole-3-carboxamide] | > 30000 | 50 to 499
Cc1cc(NC(=O)c2c(C)c(C(=O)C(=O)N[C@H]3C4CC5CC3C[C@](O)(C5)C4)n(C)c2C)cnc1F [Example 122, N-(6-fluoro-5-methylpyridin-3-yl)-5-(2-(((1R,2s,3S,5s,7s)-5-hydroxyadamantan-2-yl)amino)-2-oxoacetyl)-1,2,4-trimethyl-1H-pyrrole-3-carboxamide] | > 30000 | < 50
Cc1c(C(=O)Nc2cccc(C(F)F)c2)c(C)n(C)c1C(=O)C(=O)N[C@]1(C)C[C@@H](O)C1 [Example 720, N-(3-(difluoromethyl)phenyl)-5-(2-(((1r,3r)-3-hydroxy-1-methylcycloutyl)amino)-2-oxoacetyl)-1,2,4-trimethyl-1H-pyrrole-3-carboxamide] | > 30000 | < 50
Cc1cc(NC(=O)c2c(C)c(C(=O)C(=O)NC3(C)C(=O)NCC34CC4)n(C)c2C)ccc1F (centres unmarked) [Example 680, N-(4-fluoro-3-methylphenyl)-1,2,4-trimethyl-5-(2-((7-methyl-6-oxo-5-azaspiro[2.4]heptan-7-yl)amino)-2-oxoacetyl)-1H-pyrrole-3-carboxamide] | > 30000 | < 50
Cc1cc(NC(=O)c2cc(C(=O)C(=O)NC3(C)COC3)n3c2CCCC3)ccc1F [Example 405, N-(4-fluoro-3-metthylphenyl)-3-(2-((3-methyloxetan-3-yl)amino)-2-oxoacetyl)-5,6,7,8-tetrahydroindolizine-1-carboxamide] | > 30000 | 50 to 499
Cc1cc(NC(=O)c2c(C)c(C(=O)C(=O)NC3(C)CCOCC3)n(C)c2C)ccc1F [Example 277, N-(4-fluoro-3-methylphenyl)-1,2,4-trimethyl-5-(2-((4-methyltetrahydro-2H-pyran-4-yl)amino)-2-oxoacetyl)-1H-pyrrole-3-carboxamide] | > 30000 | < 50
Cc1c(C(=O)Nc2ccc(F)c(F)c2)c(C)n(C)c1C(=O)C(=O)NC(C)(C)CO [Example 148, N-(3,4-difluorophenyl)-5-(2-((1-hydroxy-2-methylpropan-2-yl)amino)-2-oxoacetyl)-1,2,4-trimethyl-1H-pyrrole-3-carboxamide] | > 30000 | < 50
Cc1nc(C2(NC(=O)C(=O)c3c(C)c(C(=O)Nc4ccc(F)c(C)c4)c(C)n3C)CCCCC2)no1 [Example 632, N-(4-fluoro-3-methylphenyl)-1,2,4-trimethyl-5-(2-((1-(5-methyl-1,2,4-oxadiazol-3-yl)cyclohexyl)amino)-2-oxoacetyl)-1H-pyrrole-3-carboxamide] | > 30000 | < 50
Cc1cc(NC(=O)c2c(Cl)c(C(=O)C(=O)NC(C)(C)C)n3c2CCCC3)ccc1F [Example 489] | > 30000 | < 50
O=C(N[C@H]1CCC[C@H]1O)C(=O)c1c(Cl)c(C(=O)Nc2ccc(F)c(Cl)c2)c2n1CCC2 [Example 564, 6-chloro-N-(3-chloro-4-fluorophenyl)-5--(2-(((1S,2R)-2-hydroxycyclopentyl)amino)-2-oxoacetyl)-2,3-dihydro-1H-pyrrolizine-7-carboxamide] | 5000 to 30000 | < 50
Cc1noc([C@@H](C)NC(=O)C(=O)c2c(C)c(C(=O)Nc3cnc(F)c(C)c3)c3n2CCCC3)n1 [Example 472, (R)-N-(6-fluoro-5-methylpyridin-3-yl)-2-methyl-3-(2-((1-(3-methyl-1,2,4-oxadiazol-5-yl)ethyl)amino)-2-oxoacetyl)-5,6,7,8-tetrahydroindolizine-1-carboxamide] | > 30000 | > 1000
Cc1cc(NC(=O)c2cc(C(=O)C(=O)N[C@H](C(N)=O)[C@@H](C)O)n3c2CCCC3)ccc1F [Example 401] | > 30000 | > 1000
Cc1cc(NC(=O)c2c(C)c(C(=O)C(=O)Nc3ccc(C(F)(F)F)nc3)n(C)c2C)ccc1F [Example 264, N-(4-fluoro-3-methylphenyl)-1,2,4-trimethyl-5-(2-oxo-2-((6-(trifluoromethyl)pyridin-3-yl)amino)acetyl)-1H-pyrrole-3-carboxamide] | 5000 to 30000 | < 50
Cc1c(C(=O)Nc2ccnc(Cl)c2)c(C)n(C)c1C(=O)C(=O)NC(C)(C)CO [Example 190, N-(2-chloropyridin-4-yl)-5-(2-((1-hydroxy-2-methylpropan-2-yl)amino)-2-oxoacetyl)-1,2,4-trimethyl-1H-pyrrole-3-carboxamide] | > 30000 | < 50
Cc1nc2c(s1)C(NC(=O)C(=O)c1c(C)c(C(=O)Nc3cnc(F)c(C)c3)c(C)n1C)CCC2 (centres unmarked) [Example 606, N-(6-fluoro-5-methylpyridin-3-yl)-1,2,4-trimethyl-5-(2-((2-methyl-4,5,6,7-tetrahydrobenzo[d]thiazol-7-yl)amino)-2-oxoacetyl)-1H-pyrrole-3-carboxamide] | > 30000 | < 50
Cc1cc(NC(=O)c2cc(C(=O)C(=O)NC3(CO)CC3)n3c2CCCC3)ccc1F [Example 420, N-(4-fluoro-3-methylphenyl)-3-(2-((1-(hydroxymethyl)cyclopropyl)amino)-2-oxoacetyl)-5,6,7,8-tetrahydroindolizine-1-carboxamide] | > 30000 | 50 to 499
Cc1nc2c(s1)CCCC2NC(=O)C(=O)c1c(C)c(C(=O)Nc2ccc(F)c(C)c2)c(C)n1C (centres unmarked) [Example 625, N-(4-fluoro-3-methylphenyl)-1,2,4-trimethyl-5-(2-((2-methyl-4,5,6,7-tetrahydrobenzo[d]thiazol-4-yl)amino)-2-oxoacetyl)-1H-pyrrole-3-carboxamide] | > 30000 | < 50
Cc1cc(NC(=O)c2cc(C(=O)C(=O)NC(C)(C)C)n3c2CCCC3)ccc1F [Example 393, 3-(2-(tert-butylamino)-2-oxoacetyl)-N-(4-fluoro-3-methylphenyl)-5,6,7,8-tetrahydroindolizine-1-carboxamide] | > 30000 | 50 to 499
Cc1cc(NC(=O)c2c(C)c(C(=O)C(=O)N[C@@H]3CCN(S(C)(=O)=O)C3)n(C)c2C)ccc1F [Example 665, (R)-N-(4-fluoro-3-methylphenyl)-1,2,4-trimethyl-5-(2-((1-(methylsulfonyl)pyrrolidin-3-yl)amino)-2-oxoacetyl)-1H-pyrrole-3-carboxamide] | 5000 to 30000 | < 50
Cc1cc(NC(=O)c2c(C)c(C(=O)C(=O)NC3CCN(c4nccs4)CC3)n(C)c2C)ccc1F [Example 656] | 5000 to 30000 | < 50
